Where no end group is shown, it is not given here.
Experiments:
Cells grown on plastic = assay: Uptake of the cell viability dye DRAQ7; type: cell-based; details: 50 μM, 2 hrs
Description: Discrimination between on and off states in PAR1–RIP observed in vitro translated in vivo. To gauge the interaction of RIP probes with cells, we measured their toxicity at ∼6- to 600-fold excess of the intended use in vivo. […] Inclusion of the highly specific thrombin inhibitor hirudin blocked these protease-dependent effects and confirmed the key role for thrombin in this process. Cells grown on plastic were incubated with […] pro-peptide to confirm that uptake of the fluorescent dye DRAQ7 only occurred in the protease-treated form (Supplementary Fig. 3a) not the pro-peptide alone (Supplementary Fig. 3b). Concentrations required to mediate toxicity in cell culture exceed those used in animal studies described below by several orders of magnitude, but provide a useful readout nonetheless.
Supplementary Figure 3 – The cellular effects of the active PAR1-RIP peptide. High-doses (50 μM) of the cleaved PAR1-RIP lead to
concentrations for extended periods of time (2 hrs). Scale bars, 20 µm.
(1 picture or pasted object on this page, not shown here)

[1] = Acute toxicology: serum panel of hepatic and renal functions; type: in vivo, C57BL/6J mice; design: Phosphorus / Calcium: unit not given here; details: mean±s.e.m., n=3
Description: To address the safety profile of this novel functional imaging platform, PAR1–RIP probe was administered in C57BL/6J mice at a concentration threefold higher than used for the imaging studies (150 picomoles, 100 μl). […] The serum was pipetted into clean tubes and frozen before shipment to IDEXX BioResearch (Sacramento, CA) for a comprehensive panel of hepatic and renal functions. All tests were performed using an Olympus 5400 analyser. Measurements of the following enzymes and electrolytes were provided: alkaline phosphatase, alanine aminotransferase, aspartate aminotransferase, creatine phosphokinase, total protein, direct bilirubin, indirect bilirubin, total bilirubin, globulin, blood urea nitrogen, creatinine, cholesterol, glucose, calcium, phosphorus, bicarbonate, chloride, potassium, sodium and haemolysis index.
Toxicology results are presented as mean±s.e.m. Data were analysed using GraphPad Prism (GraphPad Software Inc., San Diego, CA) and statistical differences among experimental groups of animals were detected using one-way analysis of variance (ANOVA) followed by Dunnett’s post-test; P<0.05 was considered statistically significant.

thrombin (factor IIa) = biological target: T1, thrombin (factor IIa) (Homo sapiens, UniProt P00734); assay: Peptide kinetics: proteolysis of the probe followed by HPLC/mass spectrometry; type: biochemical; details: HPLC, 37 °C, PBS pH 7.4, mean±s.d., n=3
T1 construct: Human clotting factors IIa (thrombin), VIIa, IXa, Xa, XIa, plasmin and aPC; purchased Haematologic Technologies
Excerpt: Comparison of the rates of protease-mediated hydrolysis of a tripeptide chromogenic substrate (P3–P1), quenched oligopeptide substrate (P4–P4′) and our PAR1–RIP probe (P4–P14′) emphasize the value of a larger surface area of interaction between enzyme and substrate in RIP probes. When substrates have limited potential contacts with the protease, and the majority of them are shared with homologous enzymes, their turnover is non-specific. For example, the chromogenic substrate d–Phe–Pro–Arg–paranitroanilide is not only an excellent substrate for thrombin but also for many other proteases (Fig. 3f). As substrate length increases to include four additional residues on the prime side of the scissile bond, specificity increases 10-fold (Fig. 3g). Inclusion of the 10 amino acids responsible for exosite binding to thrombin further increases the relative specificity eightfold and reduces the KM to a physiologically relevant value of 0.2±0.1 μM (mean±s.d., n=3; Fig. 3h). […]
Human clotting factors IIa (thrombin), VIIa, IXa, Xa, XIa, plasmin and aPC were obtained from Haematologic Technologies (Vermont, USA). Kinetics studies of probe digestion were measured by HPLC over the course of 1 h at 37 °C, using 10 nM of enzyme and 1 μM of PAR1–RIP in PBS (pH 7.4). […]

[2] = mouse serum 6 hs after 150 picomoles
[3] = mouse serum 6 hs after 150 picomoles, marked *
[4] = mouse serum 48 hs after 150 picomoles
[5] = mouse serum 72hs after 150 picomoles
[6] = mouse serum 72hs after 150 picomoles, marked *

For “FVQWFSKFLGKLLPR [thrombin-treated PAR1–RIP]”, the “uptake of cell viability dye DRAQ7” value (Cells grown on plastic) was “uptake of cell viability dyes including DRAQ7”.
With “FVQWFSKFLGKLLPRSFLLQDPNDQYEPF [PAR1–RIP]” the “Alanine Aminotransferase (ALT)” value [1, 2] was 29.7±1.4 U/L, the Albumin [1, 2] was 2.7 ± 0.1 g/dL and the “Aspartate Aminotransferase (AST)” value [1, 2] was 61.7 ± 4.0 U/L. The “Blood Urea Nitrogen (BUN)” value [1, 2] was 27.0 ± 2.6 mg/dL, the Calcium [1, 2] was 9.1 ± 0.1 and the Chloride [1, 2] was 116.0 ± 0.6 mEq/ L. For the same sequence, the Cholesterol [1, 2] was 79 ± 0.6 mg/dL, the Creatinine [1, 2] was 0.2 ± 0.0 mg/dL and the “Creatinine Phosphokinase (CPK)” value [1, 2] was 144.7 ± 27.4 U/L. For the same sequence, the “Direct Bilirubin” value [1, 2] was 0.0 ± 0.0 mg/dL, the Globulin [1, 2] was 1.9 ± 0.0 g/dL and the Glucose [1, 2] was 238.7 ± 2.9 mg/dL. The “Indirect Bilirubin” value [1, 2] was 0.1 ± 0.0 mg/dL, the Phosphorus [1, 2] was 6.9 ± 0.2 and the Potassium [1, 2] was 4.7 ± 0.1 mEq/ L. For the same sequence, the Sodium [1, 2] was 152.3 ± 0.3 mEq/ L, the “Total Bilirubin” value [1, 2] was 0.1 ± 0.0 mg/dL and the “Total Protein” value [1, 2] was 4.6 ± 0.1 g/dL. The Alkaline phosphatase [1, 3] was 149.7 ± 12.8 U/L, the Bicarbonate [1, 3] was 13.3 ± 0.3 mEq/ L and the “Alanine Aminotransferase (ALT)” value [1, 4] was 26.3 ± 0.3 U/L. The Albumin [1, 4] was 2.6 ± 0.1 g/dL, the Alkaline phosphatase [1, 4] was 120.7 ± 6.4 U/L and the “Aspartate Aminotransferase (AST)” value [1, 4] was 57.6 ± 6.3 U/L. The Bicarbonate [1, 4] was 15.0 ± 0.0 mEq/ L, the “Blood Urea Nitrogen (BUN)” value [1, 4] was 23.7 ± 1.4 mg/dL and the Calcium [1, 4] was 9.0 ± 0.1. For the same sequence, the Chloride [1, 4] was 110.3 ± 0.8 mEq/ L, the Creatinine [1, 4] was 0.2 ± 0.0 mg/dL and the “Creatinine Phosphokinase (CPK)” value [1, 4] was 150.3 ± 38.0 U/L. The “Direct Bilirubin” value [1, 4] was 0.1 ± 0.0 mg/dL, the Globulin [1, 4] was 2.0 ± 0.1 g/dL and the Glucose [1, 4] was 203.0 ± 3.5 mg/dL. For the same sequence, the “Indirect Bilirubin” value [1, 4] was 0.1 ± 0.0 mg/dL, the Phosphorus [1, 4] was 6.8 ± 0.2 and the Potassium [1, 4] was 4.6 ± 0.1 mEq/ L. The Sodium [1, 4] was 153.3 ± 0.9 mEq/ L, the “Total Bilirubin” value [1, 4] was 0.12 ± 0.0 mg/dL and the “Total Protein” value [1, 4] was 4.6 ± 0.1 g/dL. For the same sequence, the Cholesterol ([1]; mouse serum 48 hs after 150 picomoles, marked *) was 84.3 ± 3.5 mg/dL, the “Alanine Aminotransferase (ALT)” value [1, 5] was 20.0±1.0 U/L and the Albumin [1, 5] was 2.6 ± 0.0 g/dL. For the same sequence, the Alkaline phosphatase [1, 5] was 107.0 ± 7.8 U/L, the “Aspartate Aminotransferase (AST)” value [1, 5] was 53.7 ± 12.2 U/L and the “Blood Urea Nitrogen (BUN)” value [1, 5] was 26.7 ± 1.8 mg/dL. For the same sequence, the Calcium [1, 5] was 9.1 ± 0.2, the Chloride [1, 5] was 110.3 ± 0.3 mEq/ L and the Cholesterol [1, 5] was 82.7 ± 1.7 mg/dL. For the same sequence, the Creatinine [1, 5] was 0.2 ± 0.0 mg/dL, the “Creatinine Phosphokinase (CPK)” value [1, 5] was 156.3 ± 67.7 U/L and the “Direct Bilirubin” value [1, 5] was 0.0 ± 0.0 mg/dL. For the same sequence, the Globulin [1, 5] was 1.9 ± 0.1 g/dL, the Glucose [1, 5] was 268.0 ± 20.1 mg/dL and the “Indirect Bilirubin” value [1, 5] was 0.1 ± 0.0 mg/dL. The Phosphorus [1, 5] was 7.4 ± 0.2, the Potassium [1, 5] was 4.9 ± 0.2 mEq/ L and the “Total Bilirubin” value [1, 5] was 0.1 ± 0.0 mg/dL. For the same sequence, the “Total Protein” value [1, 5] was 4.6 ± 0.1 g/dL, the Bicarbonate [1, 6] was 18.3 ± 0.3 mEq/ L and the Sodium [1, 6] was 150 ± 0.0 mEq/ L. It also gave a Km (thrombin (factor IIa)) of 0.2 ± 0.1 µM.
